Measurements taken from patent US20230218654A1, “COMPOSITIONS AND METHODS FOR TREATING HYPERGLYCEMIA IN TYPE-2 DIABETES” (The Board of Regents of the university of Oklahoma, priority 2020, published 2023).
“Also recorded” adds a separate entry of the source.

Tests used:
[1] = system: primary mouse hepatocytes; assay: Western blot of insulin signaling in primary mouse hepatocytes; format: cell-based; details: 500 nM, 1 h
Procedure: MLN4924 enhances hepatocyte insulin responsiveness by delaying feedback IRS degradation (related to FIG. 18A). Cells were serum starved for 16 h then pre-treated with 500 nM MLN4924 for 1 h followed by 100 nM insulin stimulation in time course. Blots are representative of 2 independent experiments.
AML12 cells were a generous gift from Dr. Yanqiao Zhang (Northeast Ohio Medical University). AML12 cells were cultured in DMEM medium supplemented with a mixture of insulin-transferrin-selenium (#41400-045, ThermoFisher, Waltham, MA). For experiments, cells were cultured in serum free medium overnight before various treatments were initiated. The siGENOME SMARTpool siRNA and siControl were purchased from Dharmacon, Inc. (Lafayette, CO). The siRNA was transfected with Lipofectamine RNAiMAX reagent in a final concentration of 25 nM recommended by the manufacturer. Primary human hepatocytes and primary mouse hepatocytes were obtained from the Cell Isolation Core at the University of Kansas Medical Center. Treatments were initiated on the same day of isolation and completed within 24 hours.

[2] = system: INS-1 832/13 rat pancreas β cells; assay: Insulin secretion assay in INS-1 832/13 cells; format: cell-based
Procedure: Insulin secreted into the medium was measured, (c) Total remaining intracellular insulin was measured, (d) The % secreted insulin was the fraction of total medium insulin over the sum of insulin in the medium and cells. Results are from 3 independent experiments and expressed as mean ± SEM. Two-way ANOVA and Tukey post hoc test were used to calculate the p values.
INS-1 832/13 rat insulinoma cell line was purchased from Sigma-Aldrich (St. Louis, MO). Cells were cultured in 24-well plate in RPMI-1640 growth medium until 100% confluent. Cells were then treated with vehicle (DMSO) or 500 nM MLN4924 for 5 hrs. Cells were then incubated with 0.5 ml secretion assay buffer (SAB, 114 mM NaCl, 4.7 mM KCl, 1.2 mM KH2PO4, 1.16 mM MgSO4, 20 mM HEPES pH 7.2, 25.5 mM NaHCO3, 2.5 mM CaCl2, and 0.2% BSA) containing 2.5 mM glucose and either vehicle or 500 nM MLN4924 for 1 hr. This step was repeated once. Next, SAB containing 12 mM glucose (0.5 ml) was added to cells to stimulate insulin secretion for 1 hr. The SAB was then collected and cells were lysed in 0.2 ml 1X RIPA buffer. Insulin concentration in SAB and cell lysates was measured with an ELISA assay kit.

[3] = system: differentiated C2C12 myocytes; assay: Glucose uptake assay; format: cell-based; details: 500 nM MLN4924 6 h, 100 nM insulin 1 hour
Procedure: Differentiated C2C12 myocytes were treated with MLN4924 (500 nM) and then stimulated with 100 nM insulin as indicated. Glucose uptake into the cells was measured. Glucose uptake into the cells was increased in the presence of MLN4924.Results are mean+/-SD of 5 replicates. “* ”, p less than 0.05, vs Vehicle-treated control.“#”, vs. insulin treated, p less than 0.05.
C2C12 myoblast cells were cultured in DMEM medium supplemented with 10% FBS. When cells grow to 60% confluency, differentiation into myocytes was induced by culturing cells in DMEM supplemented with 2% horse serum for 4-6 days. Cells were then serum starved overnight and treated with 500 nM MLN4924 or DMSO for 6 h and then stimulated with 100 nM insulin for 1 hour as indicated. Glucose uptake was measured with a Glucose uptake Glo^tm assay kit that was purchased from Promega (Madison, WI).

[4] = system: skeletal muscle cullin neddylation and AKT phosphorylation; assay: Western blot of gastrocnemius (skeletal) muscle after acute MLN4924; format: in vivo, mice; details: chow diet; 60 mg/kg SQ twice
Procedure: Male C57BL/6J mice on chow diet were treated with 60 mg/kg MLN6924 via subcutaneous (SQ) injection at 5 pm on day 1 and 9 am on day 2. Mice were fasted from 9 am to 3 pm on day 2 and sacrificed. Effect of MLN4924 on gastrocnemius muscle cullin neddylation and AKT phosphorylation was measured by Western blotting.
Human normal livers (less than 5% steatosis) and histologically confirmed NASH livers were obtained from either the University of Kansas Liver Center or the Liver Tissue Cell Distribution System (LTCDS) at the University of Minnesota. Human and mouse tissue samples were homogenized in 1XRIPA buffer containing 1% SDS and protease inhibitors. After incubation on ice for 1 hour, the samples were centrifugation and supernatant was transferred to a new tube. The protein lysate was mixed with equal volume of 2X laemmli buffer and incubated at 95° C. for 5 minutes and used for SDS-PAGE and immunoblotting. ImageJ software (NIH) was used to determine band intensity.
To further explore the hepatic insulin sensitizing effect of neddylation inhibition in vivo, we administered MLN4924 to chow-fed mice twice via subcutaneous (SQ) injection (5 pm on day 1 and 9 am on day 2) and studied the acute effect of MLN4924. The dose of 60 mg/kg is in line with published literature. […] In addition to liver, skeletal muscle is another organ that quantitatively contribute to plasma glucose homeostasis.

male C57BL/6J mice = assay: Pyruvate tolerance test (PTT); format: in vivo; details: 60 mg/kg SQ twice; for blood glucose excursion / hepatic glucose production in PTT: 6 h fast, 60 mg/kg
Procedure: On the day of testing, mice were fasted for 6 h (from 9am to 3 pm). Mice were then given 2 g/kg sodium pyruvate via IP injection. Blood glucose was measured with an UltraTouch glucometer in time course over a 120-minute period.
Mice were treated with 2 doses of MLN4924 as described. After the second injection at 9 am, mice were fasted for 6 h from 9 am to 3 pm. Mice were injected intraperitoneally […] for PTT, and 0.5 U/kg insulin for ITT. Blood glucose was measured with a OneTouch Ultra glucose meter.

NS(=O)(=O)OC[C@@H]1C[C@@H](n2ccc3c(N[C@H]4CCc5ccccc54)ncnc32)C[C@@H]1O [MLN4924, ((1S,2S,4R)-4-(4-((1S)-2,3-dihydro-1H-inden-1-ylamino)-7H-pyrrolo[2,3-d]pyrimidin-7-yl)-2-hydroxycyclopentyl) methyl sulfamate] was tested, and the IRS protein abundance ([1]; then 100 nM insulin) was “increased IRS protein abundance”, the “insulin-stimulated AKT activation” value ([1]; then 100 nM insulin) was “increased IRS protein abundance and insulin-stimulated AKT activation” and the insulin signaling desensitization ([1]; then 100 nM insulin in time course) was “significantly delayed cellular insulin desensitization; also recorded: significantly delayed insulin signaling desensitization”. The neddylation inhibition ([2]; 500 nM MLN4924, 7 hrs) was “strong neddylation inhibition”, the basal insulin secretion ([2]; 500 nM MLN4924, 2.5 mM glucose) was “did not affect” and the glucose-stimulated insulin secretion ([2]; 500 nM MLN4924, 12 mM glucose) was “did not affect”. The glucose uptake [3] was “increased glucose uptake”, the “increase of AKT phosphorylation in skeletal muscle” value [4] was “did not” and the “increase of IRS protein abundance in skeletal muscle” value [4] was “did not”. For the same compound, the “inhibition of cullin neddylation in skeletal muscle” value [4] was “did not inhibit cullin neddylation”, the “peak blood glucose at 30 minutes post pyruvate challenge” value (male C57BL/6J mice; vs vehicle) was “significantly lower” and the “blood glucose excursion / hepatic glucose production in PTT” value (male C57BL/6J mice; 4-week WD-fed mice) was “significantly lower”. The “blood glucose excursion / hepatic glucose production in PTT” value (male C57BL/6J mice; 4-week chow-fed mice) was “significantly lower; also recorded: significantly reduced hepatic glucose production”.
